According to PubChem BioAssay (NCI):
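GI50 = concentration required for 50% inhibition of growth. Definition used: TGI = concentration required for complete inhibition of growth.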

Tests used:
Test in all cases: inhibition of tumour cell growth, NCI panel, 384-well format
786-0 renal = tested on: 786-0 renal
A498 renal = tested on: A498 renal
A549 NSCLC = tested on: A549 NSCLC
ACHN renal = tested on: ACHN renal
BT-549 breast = tested on: BT-549 breast
CAKI-1 renal = tested on: CAKI-1 renal
CCRF-CEM leukemia = tested on: CCRF-CEM leukemia
COLO 205 colon = tested on: COLO 205 colon
DU-145 prostate = tested on: DU-145 prostate
EKVX NSCLC = tested on: EKVX NSCLC
HCC-2998 colon = tested on: HCC-2998 colon
HCT-116 colon = tested on: HCT-116 colon
HCT-15 colon = tested on: HCT-15 colon
HL-60(TB) leukemia = tested on: HL-60(TB) leukemia
HOP-62 NSCLC = tested on: HOP-62 NSCLC
HOP-92 NSCLC = tested on: HOP-92 NSCLC
HS 578T breast = tested on: HS 578T breast
HT29 colon = tested on: HT29 colon
IGROV1 ovarian = tested on: IGROV1 ovarian
K-562 leukemia = tested on: K-562 leukemia
KM12 colon = tested on: KM12 colon
LOX IMVI melanoma = tested on: LOX IMVI melanoma
M14 melanoma = tested on: M14 melanoma
MALME-3M melanoma = tested on: MALME-3M melanoma
MCF7 breast = tested on: MCF7 breast
MDA-MB-231 breast = tested on: MDA-MB-231 breast
MDA-MB-435 melanoma = tested on: MDA-MB-435 melanoma
MDA-MB-468 breast = tested on: MDA-MB-468 breast
MOLT-4 leukemia = tested on: MOLT-4 leukemia
NCI-H226 lung = tested on: NCI-H226 lung
NCI-H23 lung = tested on: NCI-H23 lung
NCI-H322M lung = tested on: NCI-H322M lung
NCI-H460 NSCLC = tested on: NCI-H460 NSCLC
NCI-H522 lung = tested on: NCI-H522 lung
NCI/ADR-RES ovarian = tested on: NCI/ADR-RES ovarian
OVCAR-3 ovarian = tested on: OVCAR-3 ovarian
OVCAR-4 ovarian = tested on: OVCAR-4 ovarian
OVCAR-5 ovarian = tested on: OVCAR-5 ovarian
OVCAR-8 ovarian = tested on: OVCAR-8 ovarian
PC-3 prostate = tested on: PC-3 prostate
RPMI-8226 leukemia = tested on: RPMI-8226 leukemia
RXF 393 renal = tested on: RXF 393 renal
SF-268 CNS = tested on: SF-268 CNS
SF-295 CNS = tested on: SF-295 CNS
SF-539 CNS = tested on: SF-539 CNS
SK-MEL-28 melanoma = tested on: SK-MEL-28 melanoma
SK-MEL-5 melanoma = tested on: SK-MEL-5 melanoma
SK-OV-3 ovarian = tested on: SK-OV-3 ovarian
SN12C renal = tested on: SN12C renal
SNB-19 CNS = tested on: SNB-19 CNS
SNB-75 CNS = tested on: SNB-75 CNS
SR leukemia = tested on: SR leukemia
SW-620 colon = tested on: SW-620 colon
T-47D breast = tested on: T-47D breast
TK-10 renal = tested on: TK-10 renal
U251 glioblastoma = tested on: U251 glioblastoma
UACC-257 melanoma = tested on: UACC-257 melanoma
UO-31 renal = tested on: UO-31 renal

Molecule O=C(NO)c1ccc(CN(c2cnccn2)c2cnccn2)cc1 has a GI50 ([…]-0 renal) of 14.5 µM, a TGI (786-0 renal) of 27.8 µM and a GI50 (A498 renal) of 11.9 µM. For the same molecule, the TGI (A498 renal) was 25.8 µM, the GI50 (A549 NSCLC) was 13.8 µM and the TGI (A549 NSCLC) was 27.1 µM. The GI50 (ACHN renal) was 11.2 µM, the TGI (ACHN renal) was 23.8 µM and the GI50 (BT-549 breast) was 11.5 µM. It also gave a TGI (BT-549 breast) of 24.1 µM, a GI50 (CAKI-1 renal) of 12.4 µM and a TGI (CAKI-1 renal) of 26 µM. It also gave a GI50 (CCRF-CEM leukemia) of 2.32 µM, a TGI (CCRF-CEM leukemia) of 4.28 µM and a GI50 (COLO 205 colon) of 3.36 µM. It also gave a TGI (COLO 205 colon) of 8.11 µM, a GI50 (DU-145 prostate) of 3.71 µM and a TGI (DU-145 prostate) of 13.1 µM. For the same molecule, the GI50 (EKVX NSCLC) was 7.91 µM, the TGI (EKVX NSCLC) was 20.2 µM and the GI50 (HCC-2998 colon) was 12 µM. It also gave a TGI (HCC-2998 colon) of 24.4 µM, a GI50 (HCT-116 colon) of 3.01 µM and a TGI (HCT-116 colon) of 11.2 µM. For the same molecule, the GI50 (HCT-15 colon) was 11.7 µM, the TGI (HCT-15 colon) was 24.3 µM and the GI50 (HL-60(TB) leukemia) was 7.18 µM. For the same molecule, the TGI (HL-60(TB) leukemia) was 18.9 µM, the GI50 (HOP-62 NSCLC) was 12.4 µM and the TGI (HOP-62 NSCLC) was 25.5 µM. It also gave a GI50 (HOP-92 NSCLC) of 11.9 µM, a TGI (HOP-92 NSCLC) of 24.5 µM and a GI50 (HS 578T breast) of 10.5 µM. The TGI (HS 578T breast) was 22.4 µM, the GI50 (HT29 colon) was 15.6 µM and the TGI (HT29 colon) was 29.7 µM. It also gave a GI50 (IGROV1 ovarian) of 11.8 µM, a TGI (IGROV1 ovarian) of 24.1 µM and a GI50 (K-562 leukemia) of 7.51 µM. The TGI (K-562 leukemia) was 20.2 µM, the GI50 (KM12 colon) was 3.31 µM and the TGI (KM12 colon) was 12.3 µM. It also gave a GI50 (LOX IMVI melanoma) of 7.46 µM, a TGI (LOX IMVI melanoma) of 19.8 µM and a GI50 (M14 melanoma) of 3.93 µM. It also gave a TGI (M14 melanoma) of 14.3 µM, a GI50 (MALME-3M melanoma) of 3.38 µM and a TGI (MALME-3M melanoma) of 12.6 µM. It also gave a GI50 (MCF7 breast) of 4.65 µM, a TGI (MCF7 breast) of 19.4 µM and a GI50 (MDA-MB-231 breast) of 15.7 µM. For the same molecule, the TGI (MDA-MB-231 breast) was 29.4 µM, the GI50 (MDA-MB-435 melanoma) was 4.96 µM and the TGI (MDA-MB-435 melanoma) was 15 µM. The GI50 (MDA-MB-468 breast) was 2.49 µM, the TGI (MDA-MB-468 breast) was 10 µM and the GI50 (MOLT-4 leukemia) was 1.92 µM. For the same molecule, the TGI (MOLT-4 leukemia) was 3.52 µM, the GI50 (NCI-H226 lung) was 12.4 µM and the TGI (NCI-H226 lung) was 25.1 µM. For the same molecule, the GI50 (NCI-H23 lung) was 2.01 µM, the TGI (NCI-H23 lung) was 3.96 µM and the GI50 (NCI-H322M lung) was 9.66 µM. The TGI (NCI-H322M lung) was 22.4 µM, the GI50 (NCI-H460 NSCLC) was 10.2 µM and the TGI (NCI-H460 NSCLC) was 22.1 µM. The GI50 (NCI-H522 lung) was 4.84 µM, the TGI (NCI-H522 lung) was 16.2 µM and the GI50 (NCI/ADR-RES ovarian) was 4.36 µM. It also gave a TGI (NCI/ADR-RES ovarian) of 15.1 µM, a GI50 (OVCAR-3 ovarian) of 3.27 µM and a TGI (OVCAR-3 ovarian) of 12.2 µM. It also gave a GI50 (OVCAR-4 ovarian) of 5.94 µM, a TGI (OVCAR-4 ovarian) of 19 µM and a GI50 (OVCAR-5 ovarian) of 11 µM. For the same molecule, the TGI (OVCAR-5 ovarian) was 31.2 µM, the GI50 (OVCAR-8 ovarian) was 1.81 µM and the TGI (OVCAR-8 ovarian) was 3.86 µM. For the same molecule, the GI50 (PC-3 prostate) was 7.66 µM, the TGI (PC-3 prostate) was 20.9 µM and the GI50 (RPMI-8226 leukemia) was 1.35 µM. It also gave a TGI (RPMI-8226 leukemia) of 2.81 µM, a GI50 (RXF 393 renal) of 3.83 µM and a TGI (RXF 393 renal) of 14.2 µM. The GI50 (SF-268 CNS) was 8.01 µM, the TGI (SF-268 CNS) was 20.9 µM and the GI50 (SF-295 CNS) was 2.62 µM. For the same molecule, the TGI (SF-295 CNS) was 6.48 µM, the GI50 (SF-539 CNS) was 2.95 µM and the TGI (SF-539 CNS) was 10.6 µM. The GI50 (SK-MEL-28 melanoma) was 2.93 µM, the TGI (SK-MEL-28 melanoma) was 7.33 µM and the GI50 (SK-MEL-5 melanoma) was 4.27 µM. It also gave a TGI (SK-MEL-5 melanoma) of 12.8 µM, a GI50 (SK-OV-3 ovarian) of 12.2 µM and a TGI (SK-OV-3 ovarian) of 25.1 µM. For the same molecule, the GI50 (SN12C renal) was 14.7 µM, the TGI (SN12C renal) was 28.1 µM and the GI50 (SNB-19 CNS) was 13 µM. For the same molecule, the TGI (SNB-19 CNS) was 26.6 µM, the GI50 (SNB-75 CNS) was 5.98 µM and the TGI (SNB-75 CNS) was 18.2 µM. It also gave a GI50 (SR leukemia) of 1.77 µM, a TGI (SR leukemia) of 3.87 µM and a GI50 (SW-620 colon) of 10.6 µM. For the same molecule, the TGI (SW-620 colon) was 22.7 µM, the GI50 (T-47D breast) was 5.59 µM and the TGI (T-47D breast) was 17.6 µM. For the same molecule, the GI50 (TK-10 renal) was 12.9 µM, the TGI (TK-10 renal) was 26.4 µM and the GI50 (U251 glioblastoma) was 4.7 µM. It also gave a TGI (U251 glioblastoma) of 15.6 µM, a GI50 (UACC-257 melanoma) of 5.02 µM and a TGI (UACC-257 melanoma) of 17.8 µM. The GI50 (UO-31 renal) was 13.5 µM and the TGI (UO-31 renal) was 26.6 µM.
